Source: patent publication US7781419B2, “Use of bisphosphonates for otosclerosis” (priority 2003, dated 2010)
Like-named read-outs stand apart in the source and are kept apart here.

Tests used:
[1] = system: otosclerosis patients with Meniere's syndrome; test: Example 1: stepped-up risedronate, Meniere's syndrome patients; assay type: in vivo, human; conditions: 30 mg twice weekly, after 2 to 25 months, 36 patients
Protocol: (§1) In the first study, the following populations having the symptom stated were treated with a dosing schedule of 30 mg risedronate twice weekly (double the recommended dose for treating osteoporosis).

[2] = system: otosclerosis patients with dizziness; test: Example 1: stepped-up risedronate, dizziness patients; assay type: in vivo, human; conditions: 30 mg twice weekly, after 3 to 25 months, 76 patients
Protocol: (§2) Patients were administered the bisphosphonate to see if dizziness could disappear or if associated symptoms of hearing loss or ear noise could be improved.
as §1

[3] = system: otosclerosis patients with hearing loss; test: Example 1: stepped-up risedronate, hearing loss patients; assay type: in vivo, human; conditions: 30 mg twice weekly, after 3 to 24 months, 46 patients
Protocol: as §1
Hearing Loss after a Period of 3 to 24 Months

[4] = system: otosclerosis patients with tinnitus; test: Example 1: stepped-up risedronate, tinnitus patients; assay type: in vivo, human; conditions: 30 mg twice weekly, after 3 to 19 months, 29 patients
Protocol: This symptom can be a mild distraction, to an annoyance, to difficulty concentrating, to a total distraction. […] There are no current recognized treatments for tinnitus directed at a cause.
as §1
Tinnitus or Ear Noise after a Period of 3 to 19 Months

[5] = system: otosclerosis patients with Meniere's syndrome; test: Example 2: stepped-up risedronate follow-up, Meniere's syndrome patients; assay type: in vivo, human; conditions: 30 mg twice weekly, after 2 to 33 months, 42 patients
From the text: (§3) The second investigation is cumulative to the first investigation, i.e., some patients reported in Example 1 are included in Example 2.
Meniere's Syndrome after a Period of 2 to 33 Months

[6] = system: otosclerosis patients with dizziness; test: Example 2: stepped-up risedronate follow-up, dizziness patients; assay type: in vivo, human; conditions: 30 mg twice weekly, after 2 to 32 months, 155 patients
From the text: as §3
Dizziness after a Period of 2 to 32 Months

[7] = system: otosclerosis patients with hearing loss; test: Example 2: stepped-up risedronate follow-up, hearing loss patients; assay type: in vivo, human; conditions: 30 mg twice weekly, after 3 to 31 months, 125 patients
From the text: as §3
Hearing Loss after a Period of 3 to 31 Months

[8] = system: otosclerosis patients with tinnitus; test: Example 2: stepped-up risedronate follow-up, tinnitus patients; assay type: in vivo, human; conditions: 30 mg twice weekly, after 2 to 31 months, 84 patients
From the text: as §3
Tinnitus or Ear Noise after 2 to 31 Months

[9] = system: otosclerosis patients with dizziness; test: Example 4: intravenous zolendronic acid, dizziness patients; assay type: in vivo, human; conditions: 4 mg per injection, after 4 to 12 months, 3 patients
Protocol: as §2
In a fourth study, the following populations having the symptom stated were administered a zolendronic acid injection in 4 mg per injection no more frequently than every three months. […] Some patients were also administered etidronate.
Dizziness after 4 to 12 Months

[10] = system: otosclerosis patients with hearing loss; conditions: 4 mg per injection, after 2 to 10 months, 5 patients (two also on etidronate)
Protocol: To illustrate the advantages of the invention, patients with the following symptoms were treated.
In a fourth study, the following populations having the symptom stated were administered a zolendronic acid injection in 4 mg per injection no more frequently than every three months. The frequency of administration was dependent upon the patient response and the impending indication. Some patients were also administered etidronate. All patients received calcium plus vitamin D and/or calcium plus fluoride throughout the treatment.
Hearing Loss after 2 to 10 Months

## O=P(O)(O)C(O)(Cc1cccnc1)P(=O)(O)O [risedronate, pyridiniyl bisphosphonate]
[1]
  clogging or fullness in the ear worse: no patient
  dizziness the same or worse: no instances
  ear noise worse: no patient
  patients in whom clogging or fullness in the ear was not present: 42%
  patients whose clogging or fullness in the ear disappeared: 17%
  patients whose dizziness disappeared: 50%
  patients whose ear noise cleared up: 8%
  patients with clogging or fullness in the ear better: 22%
  patients with clogging or fullness in the ear the same: 19%
  patients with ear noise better: 72%
  patients with ear noise unchanged: 19%
  patients with hearing better: 83%
  patients with hearing the same: 8%
  patients with hearing worse than with prior bisphosphonate treatment: 8%
  patients with improvement, regular lifestyle free of disabling dizziness: 16%
[2]
  patients with disappearance of dizziness: 38%
  patients with dizziness worse: 3%
  patients with no change in dizziness: 8%
  patients with reduced dizziness, no problem in daily living: 38%
  relief of dizziness: greater than 90%
[3]
  patients with hearing improved: 70%
  patients with hearing unchanged: 24%
  patients with hearing worse: 6%
[4]
  improvement in tinnitus or ear noise: 68%
  patients with disappearance of tinnitus: 7%
  patients with reduction of tinnitus to a point where it was no longer a problem: 62%
  patients with tinnitus the same: 24%
  patients with tinnitus worse: 7%
[5]
  clogging or fullness in the ear worse: no patients
  dizziness the same or worse: no instances
  patients whose clogging or fullness in the ear disappeared: 26%
  patients whose dizziness disappeared: 57%
  patients with clogging or fullness in the ear better: 19%
  patients with clogging or fullness in the ear the same: 7%
  patients with ear noise better: 60%
  patients with ear noise gone: 10%
  patients with ear noise the same: 19%
  patients with ear noise worse: 2%
  patients with hearing better: 69%
  patients with hearing the same: 14%
  patients with hearing worse than with prior bisphosphonate treatment: 12%
  patients with improvement, regular lifestyle free of disabling dizziness: 17%
[6]
  patients whose dizziness disappeared: 45%
  patients with dizziness worse: 2%
  patients with no change in dizziness: 5%
  patients with reduced dizziness, no problem in daily living: 39%
  relief of dizziness: 84%
[7]
  patients with hearing improved: 51%
  patients with hearing unchanged: 47%
  patients with hearing worse: 2%
[8]
  improvement in tinnitus or ear noise: 76%
  patients with disappearance of tinnitus: 5%
  patients with reduction of tinnitus to a point where it was no longer a problem: 71%
  patients with tinnitus the same: 21%
  patients with tinnitus worse: 2%

## O=P(O)(O)C(O)(Cn1ccnc1)P(=O)(O)O [zolendronic acid]
[9]
  relief of dizziness: ~100%
[10]
  patients with hearing unchanged: 80%
  patients with hearing worse: 20%
